In patent publication US12240862B2, “Inhibitors of peptidylarginine deiminases” (Gilead Sciences, Inc., priority 2020, dated 2025):

Target: T1, human PAD4 (Homo sapiens, UniProt Q9UM07)
T1 construct: human PAD4 (NM_012387), A2P663, was PCR amplified; His-SUMO (N, cleaved yes); made in house; host or cells: E. coli BL21(DE3)
Assay: In vitro PAD4 BAEE biochemical assay
Details: human PAD4, BAEE substrate; 5 nM PAD4, 2 mM calcium chloride, 3 mM BAEE; geometric mean of multiple experiments
In short: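 Tag-free recombinant hPAD4 (5 nM), 2 mM CaCl2, 3 mM BAEE, 50 mM MOPS pH 7.6, 2 mM DTT; 30 min compound preincubation, 2 h reaction, all 25 °C. EDTA quench; ammonia read via o-phthalaldehyde amine coupling, 1 h.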

T1 sequence (Q9UM07 2-663): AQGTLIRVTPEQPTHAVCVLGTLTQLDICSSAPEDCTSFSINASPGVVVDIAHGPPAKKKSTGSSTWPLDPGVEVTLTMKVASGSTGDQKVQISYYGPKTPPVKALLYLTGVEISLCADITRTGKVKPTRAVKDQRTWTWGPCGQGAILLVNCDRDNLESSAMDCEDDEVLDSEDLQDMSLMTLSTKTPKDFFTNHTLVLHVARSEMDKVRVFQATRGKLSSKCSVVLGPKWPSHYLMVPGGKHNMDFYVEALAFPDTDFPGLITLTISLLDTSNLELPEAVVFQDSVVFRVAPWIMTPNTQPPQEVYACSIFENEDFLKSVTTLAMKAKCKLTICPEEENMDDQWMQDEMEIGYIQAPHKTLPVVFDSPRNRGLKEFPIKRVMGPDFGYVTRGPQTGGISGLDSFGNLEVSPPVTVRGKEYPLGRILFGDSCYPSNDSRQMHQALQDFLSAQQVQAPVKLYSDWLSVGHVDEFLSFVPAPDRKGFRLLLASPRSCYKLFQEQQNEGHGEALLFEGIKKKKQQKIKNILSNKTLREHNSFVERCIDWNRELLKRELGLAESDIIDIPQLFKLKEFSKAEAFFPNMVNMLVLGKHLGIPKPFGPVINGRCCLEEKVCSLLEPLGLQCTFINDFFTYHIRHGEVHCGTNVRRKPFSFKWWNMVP

Row | Compound | IC50 [nM]
1 | COc1cc(C(=O)NC[C@H]2CCCN2)cc2nc(-c3cc4ccc(N(C(F)F)S(C)(=O)=O)nc4n3CC3CC3)c(C)n12 [Example 304, 2-[1-(cyclopropylmethyl)-6-[difluoromethyl (methylsulfonyl)amino]pyrrolo[2,3-b]pyridin-2-yl]-5-methoxy-3-methyl-~{N}-[[(2~{R})-pyrrolidin-2-yl]methyl] imidazo[1,2-a]pyridine-7-carboxamide] | 19200
2 | COc1cc(C(=O)N[C@@H]2CC[C@H](C)NC2)cc2nc(-c3cc4ccc(N(C(F)F)S(C)(=O)=O)nc4n3CC3CC3)c(C)n12 [Example 315, 2-[1-(cyclopropylmethyl)-6-[difluoromethyl (methylsulfonyl)amino]pyrrolo[2,3-b]pyridin-2-yl]-5-methoxy-3-methyl-~{N}-[(3~{R},6~{S})-6-methylpiperidin-3-yl]imidazo[1,2-a] pyridine-7-carboxamide] | 350
3 | COc1cc(C(=O)N2CCC[C@@H](N)C2)cc2nc(-c3cc4ccc(-c5cccc6c5CNC6=O)nc4n3CC3CC3)c(C)n12 [Example 602, 4-[2-[7-[(3~{R})-3-aminopiperidine-1-carbonyl]-5-methoxy-3-methylimidazo[1,2-a]pyridin-2-yl]-1-(cyclopropylmethyl)pyrrolo[2,3-b]pyridin-6-yl]-2,3-dihydroisoindol-1-one] | 2150
4 | ~{N}-[2-[7-[(3~{S}, 4~{R})-3-amino-4- hydroxypiperidine-1- carbonyl]-3-ethyl- 5-methoxyimidazo[1,2- a]pyridin-2-yl]-1- (cyclopropylmethyl)pyrrolo [2,3-b]pyridin-6-yl]-~{N}- (difluoromethyl) methanesulfonamide [Example 400] | 847
5 | COc1cc(C(=O)N2[C@@H]3CC[C@H]2C[C@@H](N)C3)cc2nc(-c3cc4ccc(N(C(F)F)S(C)(=O)=O)nc4n3CC3CC3)c(C)n12 [Example 326, ~{N}-[2-[7-[(1~{R}, 5~{S})-3-amino-8-azabicyclo[3.2.1]octane-8-carbonyl]-5-methoxy-3-methylimidazo[1,2-a]pyridin-2-yl]-1-(cyclopropylmethyl)pyrrolo[2,3-b]pyridin-6-yl]-~{N}-(difluoromethyl) methanesulfonamide] | 3560
6 | C=CCN[C@@H]1CC[C@@H]2CC[C@H]1N2C(=O)c1cc(OC)n2c(C)c(-c3cc4ccc(N(C(F)F)S(C)(=O)=O)nc4n3CC3CC3)nc2c1 [Example 390, ~{N}-[1-(cyclopropylmethyl)-2-[5-methoxy-3-methyl-7-[(1~{R},2~{R},5~{R})-2-(prop-2-enylamino)-8-azabicyclo[3.2.1]octane-8-carbonyl]imidazo[1,2-a]pyridin-2-yl]pyrrolo [2,3-b]pyridin-6-yl]-~{N}-(difluoromethyl) methanesulfonamide] | 3790
7 | COc1cc(C(=O)N2[C@H]3CC[C@@H]2[C@H](N)C3)cc2nc(-c3cc4ccc(N(C(F)F)S(C)(=O)=O)nc4n3CC3CC3)c(CC(C)C)n12 [Example 429, ~{N}-[2-[7-[(1~{R},2~{R}, 4~{S})-2-amino-7-azabicyclo[2.2.1]heptane-7-carbonyl]-5-methoxy-3-(2-methylpropyl)imidazo[1,2-a]pyridin-2-yl]-1-(cyclopropylmethyl)pyrrolo [2,3-b]pyridin-6-yl]-~{N}-(difluoromethyl) methanesulfonamide] | 851
8 | CC1(c2c(-c3cc4ccc(N(C(F)F)S(C)(=O)=O)nc4n3CC3CC3)nc3cc(C(=O)N4CCC[C@@H](N)C4)ccn23)CC1 [Example 435, ~{N}-[2-[7-[(3~{R})-3-aminopiperidine-1-carbonyl]-3-(1-methylcyclopropyl)imidazo[1,2-a]pyridin-2-yl]-1-(cyclopropylmethyl)pyrrolo[2,3-b]pyridin-6-yl]-~{N}-(difluoromethyl) methanesulfonamide] | 11300
9 | COc1cc(C(=O)N2CC[C@@H]3CCCN[C@@H]3C2)cc2nc(-c3cc4ccc([C@@H](C)NC(=O)C56CC(F)(C5)C6)nc4n3CC3CC3)c(C)n12 [Example 181, ~{N}-[(1~{R})-1-[2-[7-[(4~{a}~{S},8~{a}~{S})-2,3,4,4~{a},5,6,8,8~{a}-octahydro-1~{H}-1,7-naphthyridine-7-carbonyl]-5-methoxy-3-methylimidazo [1,2-a]pyridin-2-yl]-1-(cyclopropylmethyl)pyrrolo [2,3-b]pyridin-6-yl]ethyl]-3-fluorobicyclo[1.1.1]pentane-1-carboxamide] | 10500

These reach a lower IC50. Values come first.

Row | IC50 [nM] | Compound
10 | 307 | CCO[C@@H]1CCN(C(=O)c2cc(OC)n3c(C)c(-c4cc5ccc([C@@H](C)NC(=O)c6ccccc6)nc5n4CC4CC4)nc3c2)C[C@@H]1N [Example 112, ~{N}-[(1~{R})-1-[2-[7-[(3~{S},4~{R})-3-amino-4-ethoxypiperidine-1-carbonyl]-5-methoxy-3-methylimidazo[1,2-a]pyridin-2-yl]-1-(cyclopropylmethyl)pyrrolo [2,3-b]pyridin-6-yl]ethyl]benzamide]
11 | 179 | COc1cc(C(=O)N2[C@H]3CC[C@@H]2[C@H](N)C3)cc2nc(-c3cc4ccc([C@@H](C)NC(=O)C(C)(C)C(F)(F)F)nc4n3CC3CC3)c(C)n12 [Example 171, ~{N}-[(1~{R})-1-[2-[7-[(1~{R},2~{R},4~{S})-2-amino-7-azabicyclo[2.2.1]heptane-7-carbonyl]-5-methoxy-3-methylimidazo [1,2-a]pyridin-2-yl]-1-(cyclopropylmethyl)pyrrolo [2,3-b]pyridin-6-yl]ethyl]-3,3,3-trifluoro-2,2-dimethylpropanamide]
12 | 122 | COc1cc(C(=O)N2[C@H]3CC[C@@H]2[C@H](N)C3)cc2nc(-c3cc4ccc(C(C)CC(=O)NC(C)(C)C)nc4n3CC3CC3)c(C)n12 (some centres unmarked) [Example 521, 3-[2-[7-[(1~{R},2~{R}, 4~{S})-2-amino-7-azabicyclo[2.2.1]heptane-7-carbonyl]-5-methoxy-3-methylimidazo[1,2-a]pyridin-2-yl]-1-(cyclopropylmethyl)pyrrolo [2,3-b]pyridin-6-yl]-~{N}-~{tert}-butylbutanamide]
13 | 119 | COc1cc(C(=O)N2[C@H]3CC[C@@H]2[C@H](N)C3)cc2nc(-c3cc4ccc(C(CC(=O)N5CCCC5)C5CC5)nc4n3CC3CC3)c(C)n12 (some centres unmarked) [Example 542, 3-[2-[7-[(1~{R},2~{R}, 4~{S})-2-amino-7-azabicyclo[2.2.1]heptane-7-carbonyl]-5-methoxy-3-methylimidazo[1,2-a]pyridin-2-yl]-1-(cyclopropylmethyl)pyrrolo[2,3-b]pyridin-6-yl]-3-cyclopropyl-1-pyrrolidin-1-ylpropan-1-one]
14 | 89.6 | COc1cc(C(=O)N2[C@H]3CC[C@@H]2[C@H](N)C3)cc2nc(-c3cc4ccc([C@@H](C)NC(=O)NC(C)(C)C)nc4n3CC3CC3)c(C)n12 [Example 244, 1-[(1~{R})-1-[2-[7-[(1~{R},2~{R},4~{S})-2-amino-7-azabicyclo[2.2.1]heptane-7-carbonyl]-5-methoxy-3-methylimidazo [1,2-a]pyridin-2-yl]-1-(cyclopropylmethyl)pyrrolo [2,3-b]pyridin-6-yl]ethyl]-3-~{tert}-butylurea]
15 | 50.2 | COc1cc(C(=O)N2[C@H]3CC[C@@H]2[C@H](N)C3)cc2nc(-c3cc4ccc([C@@H](C)NC(=O)N5CCCC5)nc4n3CC3CC3)c(C)n12 [Example 251, N—((R)-1-(2-(7-((1R,2R,4S)-2-amino-7-azabicyclo[2.2.1]heptane-7-carbonyl)-5-methoxy-3-methylimidazo[1,2-a]pyridin-2-yl)-1-(cyclopropylmethyl)-1H-pyrrolo[2,3-b]pyridin-6-yl)ethyl)pyrrolidine-1-carboxamide]
16 | 48.3 | COc1cc(C(=O)N2[C@H]3CC[C@@H]2[C@H](N)C3)cc2nc(-c3cc4ccc([C@@H](C)NC(=O)N5CC[C@H](F)C5)nc4n3CC3CC3)c(C3CC3)n12 [Example 216, (3~{S})-~{N}-[(1~{R})-1-[2-[7-[(1~{R},2~{R}, 4~{S})-2-amino-7-azabicyclo[2.2.1]heptane-7-carbonyl]-3-cyclopropyl-5-methoxyimidazo [1,2-a]pyridin-2-yl]-1-(cyclopropylmethyl)pyrrolo [2,3-b]pyridin-6-yl]ethyl]-3-fluoropyrrolidine-1-carboxamide]
17 | 44.2 | COc1cc(C(=O)N2[C@H]3CC[C@@H]2[C@H](N)C3)cc2nc(-c3cc4ccc([C@@H](C)NC(=O)N5CC[C@H](CCO)C5)nc4n3CC3CC3)c(C)n12 [Example 215, (3~{R})-~{N}-[(1~{R})-1-[2-[7-[(1~{R},2~{R}, 4~{S})-2-amino-7-azabicyclo[2.2.1]heptane-7-carbonyl]-5-methoxy-3-methylimidazo [1,2-a]pyridin-2-yl]-1-(cyclopropylmethyl)pyrrolo [2,3-b]pyridin-6-yl]ethyl]-3-(2-hydroxyethyl)pyrrolidine-1-carboxamide]
18 | 42.3 | COc1cc(C(=O)N2[C@H]3CC[C@@H]2[C@H](N)C3)cc2nc(-c3cc4ccc([C@@H](C)NC(=O)NCc5cccnc5)nc4n3CC3CC3)c(C)n12 [Example 226, 1-[(1~{R})-1-[2-[7-[(1~{R},2~{R},4~{S})-2-amino-7-azabicyclo[2.2.1]heptane-7-carbonyl]-5-methoxy-3-methylimidazo [1,2-a]pyridin-2-yl]-1-(cyclopropylmethyl)pyrrolo [2,3-b]pyridin-6-yl]ethyl]-3-(pyridin-3-ylmethyl)urea]
19 | 33.4 | COc1cc(C(=O)N2[C@H]3CC[C@@H]2[C@H](N)C3)cc2nc(-c3cc4ccc([C@@H](C)NC(=O)c5cc(C)nc(Cl)c5)nc4n3CC3CC3)c(C)n12 [Example 46, ~{N}-[(1~{R})-1-[2-[7-[(1~{R},2~{R},4~{S})-2-amino-7-azabicyclo[2.2.1]heptane-7-carbonyl]-5-methoxy-3-methylimidazo [1,2-a]pyridin-2-yl]-1-(cyclopropylmethyl)pyrrolo[2,3-b]pyridin-6-yl]ethyl]-2-chloro-6-methylpyridine-4-carboxamide]
20 | 30.9 | COc1cc(C(=O)N2[C@H]3CC[C@@H]2[C@H](N)C3)cc2nc(-c3cc4ccc([C@@H](C)NC(=O)c5ccnc(Cl)c5)nc4n3CC3CC3)c(C)n12 [Example 51]
